Literature values, collected in patent US20050250118A1 (priority 2003, published 2005).

Key:
AD patients [1] = details: galantamine therapy
AD patients [2] = details: presence of the ApoE4 polymorphism

Row | SMILES | most common side effects (AD patients [1]) | response to treatment with ApoE4 allele present (AD patients [2])
1 | COc1ccc2c3c1O[C@H]1C[C@@H](O)C=C[C@@]31CCN(C)C2 [galantamine] | nausea, vomiting, diarrhea, dizziness and anorexia | 
2 | Nc1c2c(nc3ccccc13)CCCC2 [tacrine] |  | reduced response to treatment
